Structures are written as SMILES.

The experiment has as its target T1, hDGAT1 (Homo sapiens, UniProt O75907).
T1 construct: host or cells: Sf9 insect cells (baculovirus); microsomal preparation
T1 sequence (O75907 1-488): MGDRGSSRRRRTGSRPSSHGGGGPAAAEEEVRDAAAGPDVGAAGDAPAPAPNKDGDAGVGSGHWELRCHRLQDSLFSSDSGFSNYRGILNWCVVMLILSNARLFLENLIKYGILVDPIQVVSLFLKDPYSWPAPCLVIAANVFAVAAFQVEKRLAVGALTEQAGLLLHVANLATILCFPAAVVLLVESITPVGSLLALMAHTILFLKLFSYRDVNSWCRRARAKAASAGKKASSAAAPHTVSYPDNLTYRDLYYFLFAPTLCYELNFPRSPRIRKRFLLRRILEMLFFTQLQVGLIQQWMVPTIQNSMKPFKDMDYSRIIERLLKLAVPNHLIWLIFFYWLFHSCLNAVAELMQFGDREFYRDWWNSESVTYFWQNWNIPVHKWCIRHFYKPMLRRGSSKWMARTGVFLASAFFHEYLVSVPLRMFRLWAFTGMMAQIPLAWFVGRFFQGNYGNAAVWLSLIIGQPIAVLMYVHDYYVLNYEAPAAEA
Put plainly: In-vitro DGAT1 assay (hDGAT1 microsomes from Sf9 cells, 14C oleoyl CoA, triglyceride formation). The format is biochemical. In outline: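 Compounds tested in duplicate at 10, 5 and 1 μM for 10 min at 37 °C. Reaction: Sf9-expressed hDGAT1 microsomes (2.5–10 μg), [14C]oleoyl-CoA plus 409.5–1638 μM dioleoylglycerol, pH 7.4 Tris-HCl with fatty-acid-free BSA. Radiolabelled triglyceride extracted into heptane and scintillation-counted.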

What is called inhibition is the share of the control response that was lost under treatment. A low value points to a response near the control. `COc1ccc(OC)c(NC(=O)Nc2ccc(-c3cc(C(=O)N[C@H](C(=O)O)C(C)C)on3)cc2)c1` [Example 166, (S)-2-(3-(4-(3-(2,5-Dimethoxyphenyl)ureido)phenyl)isoxazole-5-carboxamido)-3-methylbutanoic acid] gave an inhibition at 1 µM of 50 to 75%. The same measure, in the same setting: next, `CC(C)C(NC(=O)c1cc(-c2ccc(OCc3ccccc3)cc2)no1)C(=O)O` (stereo not drawn) [Example 322, 2-(3-(4-(Benzyloxy)phenyl)isoxazole-5-carboxamido)-3-methylbutanoic acid]: 0 to 50%.

For the setting “At 10 μM”, `Cc1cc(-c2cc(C(=O)NC(C(=O)O)C(C)C)on2)ccc1NC(=O)Nc1c(F)cccc1F` (stereo not drawn) [Example 98, 2-(3-(4-(3-(2,6-Difluorophenyl)ureido)-3-methylphenyl)isoxazole-5-carboxamido)-3-methylbutanoic acid] yielded an inhibition at 10 µM of 50 to 75%.

On to `COC[C@H](NC(=O)c1cc(-c2cccc(Nc3nc4ccc(F)cc4s3)c2)no1)C(=O)OC` [Example 28, (S)-2-({3-[3-(6-Fluoro-benzothiazol-2-ylamino)-phenyl]-isoxazole-5-carbonyl}-amino)-3-methoxy-propionic acid methyl ester], for which the inhibition at 10 µM (At 10 μM) fell in the range of 0 to 50%. For the compound `CC(C)[C@H](NC(=O)c1cc(-c2ccc(NC(=O)Nc3ccc(F)cc3)c(F)c2)no1)C(=O)O` [Example 97], under “At 10 μM”, the “% inhibition of hDGAT1” value was “+++ (>75% Inhibition ≦100)”. `COC(=O)CCCNC(=O)c1cc(-c2ccc(NC(=O)Nc3ccccc3F)cc2)no1` [Example 253, Methyl 4-(3-(4-(3-(2-fluorophenyl)ureido)phenyl)isoxazole-5-carboxamido)butanoate] showed an inhibition at 5 µM (At 5 μM) of 0 to 50%. Compound `COC[C@H](NC(=O)c1cc(-c2ccc(Nc3nc4ccc(F)cc4s3)cc2)no1)C(=O)OC` [Example 12, (S)-2-({3-[4-(6-Fluoro-benzothiazol-2-ylamino)-phenyl]-isoxazole-5-carbonyl}-amino)-3-methoxy-propionic acid methyl ester] registered an inhibition at 10 µM (At 10 μM) of 50 to 75%. With `Cc1ccc(Cl)c(NC(=O)Nc2ccc(-c3cc(C(=O)N[C@H](C(=O)O)C(C)C)on3)cc2)c1` [Example 189, (S)-2-(3-(4-(3-(2-chloro-5-methylphenyl)ureido)phenyl)isoxazole-5-carboxamido)-3-methylbutanoic acid], the inhibition at 1 µM was in the range of 75 to 100%. In turn, `COC(=O)[C@@H](NC(=S)c1c(-c2ccc(Nc3nc4ccc(F)cc4s3)cc2)noc1-c1ccccc1)C(C)C` [Example 72, (S)-2-({3-[4-(6-Fluoro-benzothiazol-2-ylamino)-phenyl]-5-phenyl-isoxazole-4-carbothioyl}-amino)-3-methyl-butyric acid methyl ester] registered an inhibition at 10 µM (At 10 μM) of 0 to 50%. Under “At 10 μM”, `NC(=S)c1cc(-c2ccc(Nc3nc4ccc(F)cc4s3)cc2)no1` [Example 4, 3-[4-(6-Fluoro-benzothiazol-2-ylamino)-phenyl]-isoxazole-5-carbothioic acid amide] returned an inhibition at 10 µM of 0 to 50%. Still for that read-out and setting: the result for `CC(C)CC(NC(=O)c1cc(-c2ccc(NC(=O)NCc3ccccc3)cc2)no1)C(=O)O` (stereo not drawn) [Example 110, 2-(3-(4-(3-Benzylureido)phenyl)isoxazole-5-carboxamido)-4-methyl pentanoic acid] reads 0 to 50%. The same measure, in the same setting: the result for `COC(=O)C(NC(=O)c1cc(-c2ccc(NC(=O)Nc3ccc(F)cc3)cc2C)no1)C(C)C` (stereo not drawn) [Example 133, Methyl 2-(3-(4-(3-(4-fluorophenyl)ureido)-2-methylphenyl)isoxazole-5-carboxamido)-3-methylbutanoate] reads 50 to 75%. `COC(=O)[C@@H](NC(=O)c1cc(-c2ccc(NC(=O)NC3CCCCC3)cc2)no1)C(C)C` [Example 80, (S)-2-(S)-2-({3-[4-(3-cyclohexyl-ureido)-phenyl]-isoxazole-5-carbonyl}-amino)-3-methyl-butyric acid methyl ester]: the “% inhibition of hDGAT1” value (At 10 μM) is “++ (>50% Inhibition ≦75)”.

Turning to `COC[C@H](NC(=NO)c1cc(-c2ccc(Nc3nc4ccc(F)cc4s3)cc2)no1)C(=O)O` [Example 17, (S)-2-({3-[4-(6-Fluoro-benzothiazol-2-ylamino)-phenyl]-N-hydroxy-isoxazole-5-carboximidoyl}-amino)-3-methoxy-propionic acid], the inhibition at 10 µM (At 10 μM) lay within 0 to 50%. Still for that read-out and setting: next, `COC[C@H](NC(=S)c1cc(-c2ccc(Nc3nc4ccc(F)cc4s3)cc2)no1)C(=O)OC` [Example 14, (S)-2-({3-[4-(6-Fluoro-benzothiazol-2-ylamino)-phenyl]-isoxazole-5-carbothioyl}-amino)-3-methoxy-propionic acid methyl ester]: 0 to 50%. As for `CC(C)C(NC(=O)c1cc(-c2ccc(NC(=O)Nc3cc(F)cc(F)c3)cc2)no1)C(=O)O` (stereo not drawn) [Example 160, 2-(3-(4-(3-(3,5-difluorophenyl)ureido)phenyl)isoxazole-5-carboxamido)-3-methylbutanoic acid], the inhibition at 1 µM was in the range of 75 to 100%. Consider `COC(=O)C(NC(=O)c1cc(-c2ccc(NC(=O)Nc3ccc(F)cc3F)cc2)no1)C(C)C` (stereo not drawn) [Example 111, Methyl 2-(3-(4-(3-(2,4-difluorophenyl)ureido)phenyl)isoxazole-5-carboxamido)-3-methylbutanoate], for which the inhibition at 10 µM (At 10 μM) is 50 to 75%.

Compound `COC(=O)C(NC(=O)c1cc(-c2ccc(NC(=O)Nc3cccc(C(F)(F)F)c3)cc2)no1)C(C)C` (stereo not drawn) [Example 277, Methyl 3-methyl-2-(3-(4-(3-(3-(trifluoromethyl)phenyl)ureido)phenyl)isoxazole-5-carboxamido)butanoate] registered an inhibition at 5 µM (At 5 μM) of 0 to 50%. For the compound `CCS/C(=N\[C@@H](C(=O)OC)C(C)C)c1cc(-c2ccc(NC(=O)Nc3ccccc3F)cc2)no1` [Example 224, (R,Z)-Methyl 2-(ethylthio(3-(4-(3-(2-fluorophenyl)ureido)phenyl)isoxazol-5-yl)methyleneamino)-3-methylbutanoate], the inhibition at 1 µM was in the range of 0 to 50%.

For `COC(=O)CCCNC(=O)c1cc(-c2ccc(NC(=O)Nc3ccc(C)cc3)cc2)no1` [Example 255, Methyl 4-(3-(4-(3-p-tolylureido)phenyl)isoxazole-5-carboxamido) butanoate], the “% inhibition of hDGAT1” value (At 5 μM) is on record as “+ (>0% Inhibition ≦50)”.

Regarding `CC(C)[C@@H](C(=O)O)N(C)C(=O)c1cc(-c2ccc(NC(=O)Nc3cccc(C(F)(F)F)c3)cc2)no1` [Example 310, (S)-3-methyl-2-(N-methyl-3-(4-(3-(3-(trifluoromethyl)phenyl)ureido)phenyl)isoxazole-5-carboxamido)butanoic acid], the inhibition at 1 µM lay in the range of 50 to 75%. On the same count and under the same terms, next, `CC(C)C(NC(=O)c1cc(-c2ccc(NC(=O)Nc3ccc(OC(F)(F)F)cc3Cl)cc2)no1)C(=O)O` (stereo not drawn) [Example 287, 2-(3-(4-(3-(2-chloro-4-(trifluoromethoxy)phenyl)ureido)phenyl)isoxazole-5-carboxamido)-3-methylbutanoic acid]: 75 to 100%. Under “At 5 μM”, `COC(=O)[C@@H](NC(=O)c1cc(-c2ccc(NC(=O)Nc3ccc(F)cc3)cc2F)no1)C(C)C` [Example 145, (S)-Methyl 2-(3-(2-fluoro-4-(3-(4-fluorophenyl)ureido)phenyl)isoxazole-5-carboxamido)-3-methylbutanoate] returned an inhibition at 5 µM of 50 to 75%. Under “At 10 μM”, `COC(=O)[C@@H]1CCCN1C(=O)c1cc(-c2cccc(Nc3nc4ccc(F)cc4s3)c2)no1` [Example 34, (S)-1-{3-[3-(6-Fluoro-benzothiazol-2-ylamino)-phenyl]-isoxazole-5-carbonyl}-pyrrolidine-2-carboxylic acid methyl ester] yielded an inhibition at 10 µM of 0 to 50%.

These data come from US8835428B2, “Diacylglycerol acyltransferase inhibitors” (Piramal Enterprises Limited, priority 2008, dated 2014).
